Measurements published in patent US20100256145A1, “USE OF KCNQ POTASSIUM CHANNEL OPENERS FOR REDUCING SYMPTOMS OF OR TREATING DISORDERS OR CONDITIONS WHEREIN THE DOPAMINERGIC SYSTEM IS DISRUPTED” (H. LUNDBECK A/S, priority 2007, published 2010).
Marks after values point to notes of the source that are not given here.

Assays:
[1] = tested on: extracellular DA levels in the nucleus accumbens; test: Microdialysis: amphetamine-evoked DA levels in the nucleus accumbens of freely moving rats; assay type: in vivo, rat; conditions: for Normalised DA level in the nucleus accumbens: compound 8.1 mg/kg s.c., D-amphetamine 0.5 mg/kg s.c. 30 min later
Description: Subjects. Male Sprague-Dawley rats (Charles River), initially weighing 275-300 g, are used.
Surgery. Animals are anaesthetized with hypnorm/dormicum (2 ml/kg s.c.) and intracerebral guide cannulas (CMA/12) are stereotaxically implanted, positioning the dialysis probe tip in the nucleus accumbens (co-ordinates: 1.7 mm anterior to bregma, −1.2 mm lateral to bregma, 8.0 mm ventral to the dura). Anchor screws and acrylic cement is applied for fixation of the guide cannula. The body temperature of the animals is maintained at 37° C. by means of a rectal probe and a heating plate. The rats are allowed to recover from surgery for 2 days, housed singly in cages.
Experimental procedure. On the day of the experiment, a microdialysis probe (CMA/12, 0.5 mm diameter, 2 mm length) is inserted through the guide cannula of the conscious animal. The probes are connected to a microinjection pump via a dual channel swivel which allowed the animals unrestricted movements. Perfusion of the microdialysis probe with filtered Ringer solution (145 mM NaCl, 3 mM KCl, 1 mM MgCl2, 1.2 mM CaCl2) is maintained for the duration of the experiment at a constant flow rate of 1 μL/min. After 180 min of stabilisation, the experiments are initiated. Dialysates are collected every 20 min. After the experiments the rats are sacrificed by decapitation, their brains removed, frozen and sliced for probe placement verification.
Administration of compounds. […] Thirty minutes later, D-amphetamine sulphate (0.5 mg/kg s.c.) is administered.
Analysis of dialysate. The concentration of DA in the dialysates is assessed by means of HPLC with electrochemical detection. The dialysate constituents are separated by reverse phase liquid chromatography (ODS 150×3 mm, […]). Mobile phase consists of 90 mM NaH2PO4, 50 mM sodium citrate, 367 mg/l sodium 1-octanesulfonic acid, 50 μM EDTA and 8% acetonitrile (pH 4.0) at a flow rate of 0.5 ml/min. Electrochemical detection of DA is accomplished using a coulometric detector; potential set at E1=−75 mV and E2=300 mV (guard cell at 350 mV) (Coulochem II, ESA). The dialysate levels of DA in the three dialyse samples preceding the administration of compound are averaged and used as baseline level of DA (100%)
Statistical analysis. The dialysate levels of DA in the three dialyse samples preceding the administration of compound are averaged and used as baseline level of DA (100%). Data are analysed using repeated measure analyses of variance followed by post hoc tests (Tukey test), when appropriate. *P<0.05 were considered significant.

[2] = tested on: choice of the large-but-delayed reward (impulsivity); test: Rat T-maze procedure: large-but-delayed vs small-but-immediate reward; assay type: in vivo; conditions: juvenile Wistar rats
Description: Subjects. male Wistar AF rats (28-41 days old) (Centre d′Elevage René Janvier, France) were used. […] During the whole study, tap water was provided ad libitum. Food was restricted to 5-10 g/day/animal in order to maintain animals at 65-75% of their free feeding weight
Experimental procedure. The experiments were performed in two identical T-maze apparatus constructed from opaque grey plastic tubing and consisting of a starting runway (30 cm long) and two arms (35 cm long) each leading to a rectangular black plastic goal box (18 cm large, 30 cm wide, 10 cm high). Removable grey plastic guillotine doors could be inserted into the vertical clefts, situated at the entry of the starting runway and at each end of the arms. One of the goal-boxes (left or right, depending on the rats) was constantly provided with a large reward, the other with a small reward. Large and small rewards consisted, respectively, of 5 and 1 pellets (20 mg, Technical & Scientific Equipment GmbH, Germany). The pellets were placed in a translucent food-cup before each trial.
First phase: habituation. Animals were first subjected to two 5-min sessions of habituation. The rat was gently introduced in the starting runway, which then was closed with a guillotine door inserted in the cleft (referred to as c0 in FIG. 1). The animal was allowed to freely explore the apparatus and to eat food rewards placed in the food cups.
Second phase: pretraining. After a door was placed in the cleft c2 near each goal-box, the rat was introduced in the starting runway. When it entered one of the two arms, a door was inserted behind it in the cleft c1 near the choice area and the door placed in cleft c2 was removed. As soon as the animal entered the goal-box, the door was placed again in the cleft c2. The rat was removed from the goal-box as soon as the pellets were eaten (usually within less than 1 min). The animal was then returned to its home cage for an intertrial interval of 2 to 3 min. Each rat was submitted one to five times/day to five trials sessions in this procedure. Training was initiated when the rat selected the arm giving access to the large reward in more than 14 out of 15 trials.
Third phase: training. Rats underwent one to five times/day five trials training sessions during which a delay was introduced before access to the large reward. After a door was placed in the cleft c2 near each goal-box, the rat was introduced in the starting runway. When it entered one of the two arms, a second door was inserted behind it in the cleft c1 near the choice area, so that rat selecting the arm leading to the large reward could be detained in this arm for a period (referred to as the waiting delay) before having access to the reinforcement. Otherwise, if the animal selected the arm leading to the small reward, the door placed in the cleft c2 was immediately opened, allowing the animal to enter the goal-box. At the beginning of training, the waiting delay was 30 sec. Then, if the percentage of choices of the large and delayed reward remained high (i.e. ≧40%) for more than six sessions, it was increased to 45 sec, and if necessary to 60 sec, 90 sec and finally 120 sec. Drug testing began when the animal selected the large and delayed reward in two trials out of five (or less) in two consecutive sessions and in one trial out of five (or less) in the following session.
Drug testing was conducted over six consecutive test-sessions of five trials each, during which the access to the large reward was preceded by the waiting delay. Test sessions were: Two control pre-drug sessions: control pre-drug session 1 and control pre-drug session 2; Two drug sessions: drug session 1 and drug session 2; Two control post-drug sessions: control post-drug session 1 and control post-drug session 2.

[3] = tested on: social behaviours in the rat Tetradic Encounter test; test: Rat Tetradic Encounter test; conditions: for % of time Agonistic behaviour: sum of defensive and aggressive behaviour
Description: Subjects. 5 week old male Wistar rats (Harlan, Germany) were used. The animals were housed in groups of four animals per cage and kept under a 12 h/12 h light dark rhythm (start of the dark phase at 2:00 p.m., CET), at 20° C. room temperature and 60% humidity. During the whole study, standard diet and tap water was provided ad libitum.
Experimental procedure. […] Therefore, half of the cage is the home territory of each animal. At test time, the wall is removed from the cage so that the animals can interact with each other for 15 minutes. Both animals are from the same test group. The cage is illuminated by dim red light. The test starts 1 hour after beginning of the dark phase. All animals are marked individually by means of black symbols on their back. Behaviour is registered by video. Each animal is tested once.
Analyses. In both the TE test and the MRI test, the portion of time (%) spent in non-social, friendly, defensive, aggressive or agonistic (sum of defensive and aggressive behaviour) behaviour was compared across the experimental groups against the relevant control group by means of Analysis of Variance (ANOVA) (one-factor).

[4] = 2 mg/kg s.c. 30 min before test
[5] = 10 mg/kg s.c. 30 min before test

## CCOC(=O)Nc1ccc(NCc2ccc(F)cc2)cc1N [Compound 1, reference compound]
[1]; Time 0 min (baseline sample)
  Normalised DA level in the nucleus accumbens: 96 ± 6 % of baseline
[1]; Time 20 min
  Normalised DA level in the nucleus accumbens: 160 ± 11 % of baseline
[1]; Time 40 min
  Normalised DA level in the nucleus accumbens: 241 ± 33 % of baseline
[1]; Time 60 min
  Normalised DA level in the nucleus accumbens: 221 ± 26* % of baseline
[1]; Time 80 min
  Normalised DA level in the nucleus accumbens: 217 ± 14* % of baseline
[1]; Time 100 min
  Normalised DA level in the nucleus accumbens: 173 ± 9 % of baseline
[1]; Time 120 min
  Normalised DA level in the nucleus accumbens: 139 ± 9 % of baseline
[1]; Time 140 min
  Normalised DA level in the nucleus accumbens: 120 ± 9 % of baseline
[1]; Time −20 min (baseline sample)
  Normalised DA level in the nucleus accumbens: 99 ± 6 % of baseline
[1]; Time −40 min (baseline sample)
  Normalised DA level in the nucleus accumbens: 105 ± 3 % of baseline
[1]; without amphetamine, data not shown
  Effect on the basal extracellular DA level in the nucleus accumbens: None of the latter three compounds significantly affects the basal extracellular DA level
[2]; 5 mg/kg s.c. 30 min before the test
  % Choice of the large but delayed reward on Drug sessions: 26.7 ± 3.3 %
[2]; placebo administered before control (pre-drug and post-drug) sessions of the same group
  % Choice of the large but delayed reward on Control sessions: 10.8 ± 2.0%
[3]; [4]
  % of time Aggressive behaviour: 5.2 % of time
  % of time Defensive behaviour: 7.2 % of time
  % of time Friendly behaviour: 21.9 % of time
  % of time Non-social behaviour: 65.7 % of time
  % of time Agonistic behaviour: 12.4 % of time
[3]; [5]
  % of time Aggressive behaviour: 2.4 % of time
  % of time Defensive behaviour: 3.7* % of time
  % of time Friendly behaviour: 24.7 % of time
  % of time Non-social behaviour: 69.2 % of time
  % of time Agonistic behaviour: 6.1* % of time
